What all share (conditions): 330 ppm; result in words
In one experiment the test system is Botrytis cinerea. Kind of experiment: Effectiveness on Botrytis cinerea (comparison compounds of WO 01/11965). It is filed as in vivo.
The test system of the next experiment is Alternaria brassicae. Kind of experiment: In vivo test on Alternaria brassicae (leaf spot of crucifers) on radish plants. The method, then: The active ingredient tested is prepared by potter homogenization in a concentrated suspension type formulation at 100 g/l. This suspension is then diluted with water to obtain the desired active material concentration.
Radish plants (Pernot variety) in starter cups, sown on a 50/50 peat soil-pozzolana substrate and grown at 18-20° C., are treated at the cotyledon stage by spraying with the aqueous suspension described above.
Plants, used as controls, are treated with an aqueous solution not containing the active material.
After 24 hours, the plants are contaminated by spraying them with an aqueous suspension of Alternaria brassicae spores (40,000 spores per cm^3). The spores are collected from a 12-13-day-old culture.
The contaminated radish plants are incubated for 6-7 days at about 18° C., under a humid atmosphere.
Grading is carried out 6 to 7 days after the contamination, in comparison with the control plants.

The subject of another experiment is Peronospora parasitica. Briefly: Efficacy against Peronospora parasitica (comparison compound of WO 01/11965). The class given is in vivo.

Data on eight compounds can be found in US7524968B2, “2-pyridinylcycloalkylbenzamide derivatives and their use as fungicides” (Bayer Cropscience S.A., priority 2004, dated 2009).

For the compound `O=C(Cc1cccs1)NCc1ncc(C(F)(F)F)cc1Cl` [compound 101, N-{[3-chloro-5-(trifluoromethyl)-2-pyridinyl]methyl}-5-thienylacetamide], the “effectiveness on Botrytis cinerea” value in the experiment with Botrytis cinerea is “no efficacy”. Besides, the “effectiveness on Alternaria brassicae” value in the experiment with Alternaria brassicae is on record as “poor efficacy”. Further, the “efficacy against Peronospora parasitica” value in the experiment on Peronospora parasitica is on record as “no efficacy”.
`CCNC(=O)C(Cc1ncc(C(F)(F)F)cc1Cl)NC(=O)c1ccccc1` (stereo not drawn) [compound 304, N-{1-ethylcarbamoyl-2-[3-chloro-5-(trifluoromethyl)-2-pyridinyl]-ethyl}-benzamide]: the “effectiveness on Botrytis cinerea” value with Botrytis cinerea was “zero effectiveness”.
Consider `CCNC(=O)C(Cc1ncc(C(F)(F)F)cc1Cl)NC(=O)c1ccc(Cl)cc1` (stereo not drawn) [compound 306, N-{1-ethylcarbamoyl-2-[3-chloro-5-(trifluoromethyl)-2-pyridinyl]ethyl}-4-chlorobenzamide], for which the “effectiveness on Botrytis cinerea” value in the experiment on Botrytis cinerea is “zero effectiveness”.
Turning to `CCNC(=O)C(Cc1ncc(C(F)(F)F)cc1Cl)NC(=O)c1cccc([N+](=O)[O-])c1` (stereo not drawn) [compound 307, N-{1-ethylcarbamoyl-2-[3-chloro-5-(trifluoromethyl)-2-pyridinyl]ethyl}-3-nitrobenzamide], the “effectiveness on Botrytis cinerea” value in the experiment on Botrytis cinerea is “zero effectiveness”. Further, the “effectiveness on Alternaria brassicae” value with Alternaria brassicae is listed as “poor effectiveness”.
With `CCNC(=O)C(Cc1ncc(C(F)(F)F)cc1Cl)NC(=O)c1ccccc1Br` (stereo not drawn) [compound 310, N-{1-ethylcarbamoyl-2-[3-chloro-5-(trifluoromethyl)-2-pyridinyl]ethyl}-2-bromobenzamide], in the experiment with Botrytis cinerea, the “effectiveness on Botrytis cinerea” value is on record as “zero effectiveness”.
With `CNC(=O)C(Cc1ncc(C(F)(F)F)cc1Cl)NC(=O)c1ccccc1` (stereo not drawn) [compound 314, N-{1-methylcarbamoyl-2-[3-chloro-5-(trifluoromethyl)-2-pyridinyl]ethyl}-benzamide], in the experiment on Botrytis cinerea, the “effectiveness on Botrytis cinerea” value was “zero effectiveness”.
Still for that read-out and setting: in the case of `CNC(=O)C(Cc1ncc(C(F)(F)F)cc1Cl)NC(=O)c1ccc(OC)cc1` (stereo not drawn) [compound 315, N-{1-methylcarbamoyl-2-[3-chloro-5-(trifluoromethyl)-2-pyridinyl]ethyl}-4-methoxybenzamide] it was “zero effectiveness”.
For `CNC(=O)C(Cc1ncc(C(F)(F)F)cc1Cl)NC(=O)c1ccc(-c2ccccc2)cc1` (stereo not drawn) [compound 316, N-{1-methylcarbamoyl-2-[3-chloro-5-(trifluoromethyl)-2-pyridinyl]-ethyl}-4-phenylbenzamide], the “effectiveness on Botrytis cinerea” value in the experiment with Botrytis cinerea is listed as “zero effectiveness”. Further, the “effectiveness on Alternaria brassicae” value in the experiment on Alternaria brassicae was “poor effectiveness”.
